In publication PMC9400670, “Establishing the selective phospholipid membrane coordination, permeation and lysis properties for a series of ‘druggable’ supramolecular self-associating antimicrobial amphiphiles” (Chemical Science, 2022):
In brackets after ≈: the same amount, converted by molar mass.

Experiments:
[1] = Mouse plasma protein binding (rapid equilibrium dialysis) with plasma stability; format: in vitro ADME; settings: for recovery at 4 h, 2 µM: mouse plasma, read-out: Recovery (PPB assay); for fraction unbound at 4 h, 2 µM: PPB
Protocol: page 7: Section 4: DMPK Methods and Further Discussion Materials used for DMPK studies: Sprague Dawley rat liver microsomes (male, 771 donors, Lot 1910100), CD-1 mouse liver microsomes (male, 6424 donors, Lot 2010017) and human liver microsomes (mixed gender,50 donors, Lot 1810003) were purchased from Sekisui Xenotech (Kansas City, USA). Microsomal incubations: SSA 1-6 and 10 (final concentration 1 µM) were pre-incubated for 10 min in mouse, rat, or human liver microsomes (final concentration 0.5 mg/mL prepared in 100 mM potassium phosphate buffered saline (PBS)) at 37°C. The reaction was initiated with the addition of the cofactor, NADPH-generating system. The NADPH-generating system consisted of NADP (1.3 mM, pH 7.4), glucose-6-phosphate (3.3 mM, pH 7.4), glucose-6-phosphate dehydrogenase (0.4 unit/mL) and MgCl2 (3.3 mM). The reaction was allowed to proceed for 45 min. At 0, 5, 10, 15, 30, and 45 min aliquots were sampled and quenched in ice cold acetonitrile with internal standard. Incubations were conducted in singlicate; control incubations (substituting PBS for NADPH) were conducted simultaneously. All control incubations were within acceptance criteria in mouse, rat, and human microsomes confirming stability was acceptable over 45 minutes in the absence of co-factor. Protein Binding studies: The fraction unbound in mouse plasma (BioIVT, Frankfurt Am Main, Germany) of SSA 1-6 and 10 were measured using a Rapid Equilibrium Dialysis device (Thermo Fisher Scientific, Loughborough, UK). Mouse plasma containing 2 µM of SSA 1-6 and 10 were dialysed against 100 mM PBS for 4h at 37°C at 5% CO2. Samples were removed, matrix matched and quenched with acetonitrile containing internal standard; further processing is described in: Sample preparation and liquid chromatography-mass spectrometry analysis. Caco-2 Permeability studies: The permeability assay for SSA 1-6 and 10 was performed at Cyprotex Discovery Limited (Macclesfield, UK) and analysed at Cancer Research Horizons. SSA 1-6 and 10 were incubated at a final concentration of 10 uM with human intestinal Caco-2 cells at 37°C, 5% CO2 with a relative humidity of 95%. After 120 minutes the apical compartment inserts and the companion plates were separated, and the apical and basolateral samples were transferred. Incubations were conducted in duplicate and the fluorescent membrane integrity marker; Lucifer Yellow was co- incubated with the SSA compounds at the start of the assay. Compounds of known permeability were used as controls and were within acceptance criteria. Further processing is described in: Sample preparation and liquid chromatography-mass spectrometry analysis. Sample preparation and liquid chromatography-mass spectrometry analysis: All samples were centrifuged at 3500 rpm at 4°C for 10 min to precipitate protein and enable sampling of supernatant prior to appropriate dilution for liquid chromatography-mass spectrometry (LC-MS/MS analysis). For the purpose of CLINT determination, samples were analysed using a Waters I-Class ultra-high- performance liquid chromatography (UHPLC) system coupled to a Waters Xevo TQ-XS mass spectrometer (Waters, Elstree, UK). Separation of analytes was achieved using an Accucore Vanquish C18+ column (1.5 µm, 50 x 2.1 mm) (Thermo Fisher Scientific, Hemel Hempstead) at a temperature of 40°C and a binary mobile phase gradient at a flow rate of 0.4 mL/min. Initial LC conditions comprised 95% solvent A (0.1% formic acid + 5 mM ammonium acetate in water), 5% solvent B (0.1% formic acid + 5 mM ammonium acetate in acetonitrile); this was ramped to 90% B at 5 min, and then immediately returned to initial conditions and held for the remaining 0.5 min of the method. Sample analysis was by electrospray ionisation combined with multiple reaction monitoring in negative ion mode. […]

[2] = tested on: MRSA USA300; assay: MIC50 determination and initial screening from OD600 growth curves, MRSA USA300; format: cell-based, Staphylococcus aureus
From the text: The antimicrobial activity of SSAs 1–14 was established against both a model Gram-positive, clinically relevant methicillin resistant Staphylococcus aureus (MRSA), and a model Gram-negative, E. coli bacteria, Table 1. Here MIC50 values are given in mM to enable the derivation of molecular structure: antimicrobial efficacy: physical property relationships. […]
Data were acquired in endpoint mode. […]
Section 3: Microbial Methods
These methods were taken directly from UK Health and Security Office (UKHSA) standard operating […]
Preparation of Luria Broth media (LB): Yeast extract (5 g), tryptone (10 g) and sodium chloride (10 g) were dissolved in dH₂O (1 L) then divided into bottles and autoclaved.
Preparation of Luria Broth (LB) agar plates: Agar (6 g) was added to LB (400 mL) and autoclaved. Once cool, the LB agar was poured into sterile petri dishes under sterile conditions and allowed to set. LB plates were stored at 4 °C until use.
Preparation of bacterial plates: Sterile LB agar plates were streaked using Escherichia coli DH10B or USA300 Methicillin-Resistant Staphylococcus aureus then incubated at 37 °C overnight.
Preparation of Inoculum: An initial culture was made up by inoculating LB media (5 mL) with a single colony of bacteria under sterile conditions and incubated at 37 °C with shaking overnight. The following day, overnight bacterial cultures were subcultured into fresh LB medium to a starting OD600 […]
Preparation of 96 well microplate for screening: 20 mM solutions of each compound to be tested were made up using 5 % ethanol. The 1:100 cell suspension (150 µL) was pipetted into the wells and SSA compound solutions (30 µL) were added into each well. The final screening concentration for each compound was 3.3 mM in the well. These were incubated for 20 hours in a plate reader, with optical density readings being taken at 600 nm every 15 minutes. Optical density readings were plotted against time to produce growth curves. […]
individual wells under sterile conditions. Compounds (30 µL) were added to the wells to equal a total volume of 180 µL in the wells. Six repeats of each concentration for each compound were created each plate. The plates were sealed using parafilm, then incubated at 37°C in a microplate reader for 18-25 hours. Optical density readings were taken at 600 nm every 15 min. Data was used to generate […]
Calculation of MIC50: Growth curves were plotted using OD600 optical density readings in Microsoft ® Excel ® 2013. OD600 optical density readings 900 minutes from the start of each of these growth cultures for each concentration of compound were plotted in Origin ® 2015. The resultant curve was normalized and fitted using the Boltzmann fit to define the MIC50 values for each compound.

[3] = mouse, % SSA recovered from the assay after 4 hours
[4] = Staphylococcus aureus, 15 h, Table S3, conversion of the mM values of Table 1, MRSA USA300, after 900 mins
[5] = Staphylococcus aureus, 15 h, MRSA USA300, n = 3, 0.5 McFarland standard, after 900 min, number in bracket = efficacy rank, SSA 11 estimated due to data quality

O=C(NCS(=O)(=O)O)Nc1ccccc1-c1nc2ccccc2s1 [SSA 5]
Plasma stability ([1]; mouse, 4 h, 2 µM): 92%
recovery at 4 h, 2 µM [1, 3]: 109%
PPB class ([1]; mouse, plasma): very high
fraction unbound at 4 h, 2 µM ([1]; mouse, plasma): < 0.003
MIC50 [2, 4]: 599 mg/L

O=C(NCCCS(=O)(=O)O)Nc1ccc(C(F)(F)F)cc1 [SSA 2]
Plasma stability ([1]; mouse, 4 h, 2 µM): 93%
recovery at 4 h, 2 µM [1, 3]: 79%
fraction unbound at 4 h, 2 µM ([1]; mouse, plasma): 0.166

O=C(NCS(=O)(=O)O)Nc1ccc(C(F)(F)F)cc1 [SSA 3]
Recovery (PPB assay) ([1]; % SSA recovered from the assay after 4 hours): 80%
Plasma stability ([1]; mouse, 4 h, 2 µM): 89%
PPB ([1]; mouse, plasma, 4 h, 2 µM): 73.8%
MIC50 MRSA ([2]; Table S3, conversion of the mM values of Table 1, MRSA USA300, after 900 mins): 132 mg/L (≈ 443 µM)

Cc1ccc2nc(-c3ccc(NC(=O)NCC(=O)O)cc3)sc2c1 [SSA 11]
MIC50 [2, 5]: 310 to 630 µM
MIC50 [2, 4]: 181 to 367 mg/L

O=C(NCS(=O)(=O)O)Nc1ccc(C(F)(F)F)cc1 [SSA 1]
Plasma stability ([1]; mouse, 4 h, 2 µM): 94%
recovery at 4 h, 2 µM [1, 3]: 91%
PPB class ([1]; mouse, plasma): low
fraction unbound at 4 h, 2 µM ([1]; mouse, plasma): 0.25
MIC50 [2, 4]: 248 mg/L

O=C(NCS(=O)(=O)O)Nc1ccc(-c2nc3ccccc3s2)cc1 [SSA 8]
MIC50 [2, 5]: 1150 µM
MIC50 [2, 4]: 696 mg/L

Cc1ccc2nc(-c3ccc(NC(=O)NCS(=O)(=O)O)cc3)sc2c1 [SSA 6]
Plasma stability ([1]; mouse, 4 h, 2 µM): 90%
recovery at 4 h, 2 µM [1, 3]: 101%
PPB class ([1]; mouse, plasma): very high
fraction unbound at 4 h, 2 µM ([1]; mouse, plasma): 0.007
MIC50 [2, 4]: 576 mg/L

Cc1ccc2nc(-c3ccc(NC(=O)NCCCS(=O)(=O)O)cc3)sc2c1 [SSA 10]
Plasma stability ([1]; mouse, 4 h, 2 µM): 89%
recovery at 4 h, 2 µM [1, 3]: 94%
PPB class ([1]; mouse, plasma): very high
fraction unbound at 4 h, 2 µM ([1]; mouse, plasma): 0.007
MIC50 [2, 5]: 590 µM
MIC50 [2, 4]: 382 mg/L

Cc1ccc2nc(-c3ccc(NC(=O)NCCC(=O)O)cc3)sc2c1 [SSA 9]
MIC50 [2, 5]: 1200 µM
MIC50 [2, 4]: 760 mg/L

Cc1ccc2nc(NC(=O)NCS(=O)(=O)O)sc2c1 [SSA 7]
inhibition at 3300 µM ([2]; Staphylococcus aureus, 15 h, 3.3 mM, after 900 min, read-out: initial antimicrobial screening, inhibition of growth, MRSA): < 10%
initial antimicrobial screening outcome, MRSA ([2]; Table S3, screening at 3.3 mM): Fail

O=C(O)CNC(=O)Nc1ccc(C(F)(F)F)cc1 [SSA 4]
Plasma stability ([1]; mouse, 4 h, 2 µM): 96%
recovery at 4 h, 2 µM [1, 3]: 86%
PPB class ([1]; mouse, plasma): low
fraction unbound at 4 h, 2 µM ([1]; mouse, plasma): 0.328
MIC50 [2, 4]: 574 mg/L
